According to the supplement of paper PMC10949913:

How the values were obtained:
Test in all cases: area under concentration-response curve (viability) (AUC (a.u.)); higher = less active
Settings in all cases: 48 h
CU-ACC1 = tested on: CU-ACC1
Outline: (§1)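 Cells from three adrenocortical carcinoma lines were seeded at 500–1,000 cells/well in 5 µL medium in 1,536-well plates. Each library compound was added as 23 nL at 11 concentrations, and after 48 h CellTiter-Glo was added for 15 minutes at room temperature before reading luminescence. Plate-wise normalisation to vehicle and empty-well controls preceded curve fitting. AC50 and area under the curve were calculated only for inhibitory or non-responding curve classes.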

CU-ACC2 = tested on: CU-ACC2
Outline: as §1

NCI-H295R = tested on: NCI-H295R
Outline: as §1

| Compound | area under concentration-response curve (CU-ACC1) | area under concentration-response curve (CU-ACC2) | area under concentration-response curve (NCI-H295R) |
| --- | --- | --- | --- |
| Clc1cc2c(NC3CCCC3)nnc(-c3ccncc3)c2cc1Cl | 581 | 609 | 518 |
| Cc1cc(-c2cnn3c(NC[C@H]4C[C@@](C)(O)C4)cc(Oc4cccnc4)nc23)ccc1C(=O)NC1CC1 | 626 | 775 | 659 |
| CC(C)NCC(O)c1ccc(O)c(O)c1 (stereo not drawn) | 487 | 548 | 502 |
| OC[C@H]1O[C@H]([C@H](O)[C@@H]1O)N2\C=C/C(=O)NC2=O | 485 | 535 | 502 |
| COc1ccc(CC2SC(=O)NC2=O)cc1C(=O)NCc1ccc(C(F)(F)F)cc1 (stereo not drawn) | 570 | 645 | 585 |
| C=C[C@H]1CN2CCC1C[C@@H]2C(O)c1ccnc2ccc(OC)cc12 (stereo partly drawn) | 509 | 595 | 504 |
| CCN[C@H]1C[C@H](C)[S+](=O)([O-])c2sc([S+](N)(=O)[O-])cc21 | 514 | 612 | 558 |
| O=C(C[C@@H]1C/C=C\CCC(=O)O[C@H](c2ccccc2)CNC1=O)NCc1ccc(Cl)cc1 | 526 | 620 | 569 |
| O=C1CC[C@@]2(O)[C@H]3Cc4ccc(O)c5c4[C@@]2(CCN3CC2CC2)[C@H]1O5 | 413 | 623 | 559 |
| ClC1=C(N\C2=N\CCN2)C3=NSN=C3C=C1 | 412 | 609 | 541 |
| Cc1ccc([S+](=O)([O-])Nc2nc3ccccc3nc2Nc2ccc3nsnc3c2)cc1 | 558 | 640 | 535 |
| C#Cc1cccc(Nc2ncnc3cc4c(cc23)OCCOCCOCCO4)c1 | 462 | 599 | 546 |
| CCCCN(CCCC)CC(O)c1cc(Cl)cc2c1-c1ccc(Cl)cc1/C2=C/c1ccc(Cl)cc1 (stereo not drawn) | 546 | 631 | 582 |
| C[C@@H]1C[C@H]2[C@@H]3CCC\4=C\C(=O)\C=C/[C@]4(C)[C@@]3(F)[C@@H](O)C[C@]2(C)[C@@]1(O)C(=O)CO | 515 | 588 | 481 |
| CN1C(=O)[C@@H](NC(=O)[C@H](CCC(F)(F)F)[C@H](CCC(F)(F)F)C(N)=O)\N=C(C2=CC=CC=C2)/C3=CC=CC=C13 | 514 | 610 | 530 |
| CCCCCCCCCCCCCCCC(=O)O[C@@H]1[C@@H](O)[C@@H](O)[C@@H]([C@H](NC(=O)[C@@H]2C[C@@H](CCC)CN2C)[C@H](C)Cl)O[C@@H]1SC.Cl | 489 | 583 | 513 |
| C[C@H]1C[C@@H](n2c(Nc3ccc(OC(F)(F)F)cc3)nc3cc(CCC(=O)O)ccc32)CC(C)(C)C1 | 424 | 405 | 485 |
| C[C@H]1CN(C[C@H](Cc2ccccc2)C(=O)NCC(=O)O)CC[C@@]1(C)c1cccc(O)c1 | 569 | 662 | 577 |
| CCCCCCCCCCCCCCCCCCOP(=O)([O-])OC1CC[N+](C)(C)CC1 | 418 | 534 | 449 |
| C[C@H](CCC(=O)O)[C@H]1CC[C@H]2[C@@H]3[C@H](O)C[C@@H]4C[C@H](O)CC[C@]4(C)[C@H]3CC[C@]12C | 477 | 558 | 485 |
| Cc1onc(-c2ccc(F)cc2)c1COc1ccc(C(=O)N2CC[S+](=O)([O-])CC2)cn1 | 596 | 646 | 616 |
| N[C@@H](CCC(=O)O)C(=O)N[C@@H](Cc1c[nH]c2ccccc12)C(=O)O | 493 | 584 | 519 |
| C[C@]\12CC[C@H](O)CC1=C/C[C@@H]3[C@@H]2CC[C@@]\4(C)[C@H]3C\C=C4C5=CN=CC=C5 | 522 | 588 | 509 |

| Compound | area under concentration-response curve (CU-ACC1) | area under concentration-response curve (CU-ACC2) | area under concentration-response curve (NCI-H295R) |
| --- | --- | --- | --- |
| c1ccc2[nH]c(-c3cscn3)nc2c1 | 557 | 630 | 556 |
| C[C@]12CC[C@H]3[C@@H](C\C=C/4C[C@@H](O)CC[C@]34C)[C@@H]1CCC2=O | 523 | 591 | 479 |
| C[C@]1(c2nc3c(C(N)=O)cccc3[nH]2)CCCN1 | 495 | 564 | 521 |
| CN\1N(C(=O)\C(=C1C)C(=O)NC2=CC=C(OC3=CC=NC4=C3C(=C[NH]4)C5=CC=CC=C5)C(=C2)F)C6=CC=C(F)C=C6 | 522 | 525 | 535 |
| O=C1CCc2ccc(OCCCCN3CCN(c4cccc(Cl)c4Cl)CC3)cc2N1 | 468 | 593 | 544 |
| CCOC(=O)\C1=C\[C@@H](OC(CC)CC)[C@H](NC(C)=O)[C@@H](N)C1 | 508 | 602 | 547 |
| CN[C@@H]1Cc2cccc3[nH]c(=O)n(c23)C1 | 576 | 659 | 590 |
| CNC1CCCN(C1)C2=C(F)C=C3C(=O)\C(=C/N(C4CC4)C3=C2OC)C(O)=O (stereo not drawn) | 530 | 655 | 564 |
| CNc1nc(Nc2ccc(C(=O)N3CCOCC3)cc2OC)ncc1Cl | 511 | 607 | 555 |
| CCC(C)C(N)\C1=N\C(CS1)C(=O)N[C@@H](CC(C)C)C(=O)N[C@H](CCC(O)=O)C(=O)N[C@@H]([C@@H](C)CC)C(=O)N[C@H]2CCCCNC(=O)[C@H](CC(N)=O)NC(=O)[C@@H](CC(O)=O)NC(=O)[C@H](CC3=CN=C[NH]3)NC(=O)[C@@H](CC4=CC=CC=C4)NC(=O)[C@@H](NC(=O)[C@@H](CCCN)NC2=O)[C@@H](C)CC (stereo partly drawn) | 593 | 682 | 582 |
| CCCC[C@@H](C=O)NC(=O)[C@H](CC(C)C)NC(=O)OCc1ccccc1 | 463 | 552 | 517 |
| O=C(CCc1ccc(O)cc1)c1c(O)cc(O)cc1O | 531 | 653 | 585 |
| Cc1coc2c1C(=O)C(=O)c1c-2ccc2c1CCCC2(C)C | 433 | 479 | 456 |
| Cc1ccc(O)c(C(CCN(C(C)C)C(C)C)c2ccccc2)c1.Cl (stereo not drawn) | 491 | 625 | 558 |
| O=C1\C=C/C[C@@H]2[C@H]3CCCN4CCC[C@@H](CN12)[C@@H]34 | 541 | 509 | 546 |
| CN1\C(=C(\O)C2=C(C=CC=C2)[S+]1([O-])=O)C(=O)NC3=CC=CC=N3 | 432 | 495 | 464 |
| COc1cc2c(NC3CCN(C)CC3)nc(N3CCCN(C)CC3)nc2cc1OCCCN(C)C | 544 | 641 | 564 |
| COC/1=C/[C@@H]2[C@@H]3CC4=C(C(=C(OC)C=C4)O)[C@]2(CCN3C)CC1=O | 457 | 519 | 479 |
| O=C1N(c2ccccc2)c2ccccc2C1(Cc1ccncc1)Cc1ccncc1 | 448 | 543 | 504 |
| Cc1ccsc1C(=CCCN1CCC[C@@H](C(=O)O)C1)c1sccc1C | 488 | 593 | 541 |
| CCCc1nc2c(C)cc(-c3nc4ccccc4n3C)cc2n1Cc1ccc(-c2ccccc2C(=O)O)cc1 | 561 | 639 | 599 |
| Cc1ccccc1C(C(=O)NC1CCCCC1)N(C(=O)Cn1ccnc1C)c1cccc(F)c1 (stereo not drawn) | 519 | 593 | 539 |
| C[C@]12C[C@H](O)[C@H]3[C@@H](CC\C4=C\C(=O)\C=C/[C@]34C)[C@@H]1CC[C@]2(O)C(=O)CO | 496 | 590 | 545 |
